22 molecules from ChEMBL document CHEMBL3091409, “Potent P2Y1 urea antagonists bearing various cyclic amine scaffolds” (Bioorg Med Chem Lett, 2013) can be followed below.

One data set addresses P2Y purinoceptor 1 (Homo sapiens, UniProt P47900). Description: Displacement of [beta-33P]-2MeS-ADP from human P2Y1 receptor transfected in HEK293 cells after 1 hr by scintillation counting method. Format: cell-based.
A further data set deals with Platelet. Description: Inhibition of ADP-induced platelet aggregation in human platelet rich plasma. It is filed as functional.
A short description of data set [1]: Volume of distribution at steady state in rat at 2 mg/kg, iv and 5 mg/kg, po. Format: ADME, organism-based. The note with it: in vivo, read-out: Vdss.
Data set [2] addresses Sodium-dependent noradrenaline transporter (Homo sapiens) (UniProt P23975). The data set is described as follows: Inhibition of NET (unknown origin). The note with it: concentration not given here.
Data set [3] can be described thus: Clearance in rat at 2 mg/kg, iv and 5 mg/kg, po. Format: ADME, organism-based. The note with it: in vivo.
For data set [4], the target named is D(2) dopamine receptor (Homo sapiens) (UniProt P14416). The data set is described as follows: Inhibition of D2 receptor (unknown origin). As to conditions: concentration not given here.
Data set [5] in a line: Aqueous solubility of the compound in partially crystalline form in […] phosphate buffer at pH 6.5. Format: physicochemical.
The nature of data set [6]: Metabolic stability in rat liver microsomes assessed as compound remaining after 10 mins. Format: ADME. The note with it: read-out: Stability.
Data set [7] can be described thus: Permeability of the compound by PAMPA. Format: ADME. The note with it: read-out: permeability.
Data set [8] can be described thus: Half life in rat at 2 mg/kg, iv and 5 mg/kg, po. It is filed as ADME, organism-based. As to conditions: in vivo.
Data set [9] is described as follows: Plasma protein binding in human plasma. The note with it: read-out: PPB (converted). Format: ADME, cell-free.
Data set [10] concerns the target 5-hydroxytryptamine receptor 2A (Homo sapiens) (UniProt P28223). Description: Inhibition of 5-HT2A receptor (unknown origin). As to conditions: concentration not given here.
Data set [11] can be described thus: Oral bioavailability in rat at 5 mg/kg. Format: ADME, organism-based. As to conditions: in vivo.
For data set [12], the target named is Voltage-gated inwardly rectifying potassium channel KCNH2 (Homo sapiens, UniProt Q12809). Description: Inhibition of human ERG flux.
Data set [13] is described as follows: Aqueous solubility of the compound in amorphous form in […] phosphate buffer at pH 6.5. Format: physicochemical.
Data set [14] is described as follows: Permeability from apical to basolateral side of human Caco2 cells. Format: ADME, cell-based. As to conditions: Caco-2, read-out: permeability. A general note: Caco-2 cells form a polarised layer with tight junctions and transporters.
The nature of data set [15]: Aqueous solubility of the compound in crystalline form in […] phosphate buffer at pH 6.5. Format: physicochemical.

≈ marks a conversion by molar mass, not a printed value.

Sequence of Voltage-gated inwardly rectifying potassium channel KCNH2 (Q12809 whole entry): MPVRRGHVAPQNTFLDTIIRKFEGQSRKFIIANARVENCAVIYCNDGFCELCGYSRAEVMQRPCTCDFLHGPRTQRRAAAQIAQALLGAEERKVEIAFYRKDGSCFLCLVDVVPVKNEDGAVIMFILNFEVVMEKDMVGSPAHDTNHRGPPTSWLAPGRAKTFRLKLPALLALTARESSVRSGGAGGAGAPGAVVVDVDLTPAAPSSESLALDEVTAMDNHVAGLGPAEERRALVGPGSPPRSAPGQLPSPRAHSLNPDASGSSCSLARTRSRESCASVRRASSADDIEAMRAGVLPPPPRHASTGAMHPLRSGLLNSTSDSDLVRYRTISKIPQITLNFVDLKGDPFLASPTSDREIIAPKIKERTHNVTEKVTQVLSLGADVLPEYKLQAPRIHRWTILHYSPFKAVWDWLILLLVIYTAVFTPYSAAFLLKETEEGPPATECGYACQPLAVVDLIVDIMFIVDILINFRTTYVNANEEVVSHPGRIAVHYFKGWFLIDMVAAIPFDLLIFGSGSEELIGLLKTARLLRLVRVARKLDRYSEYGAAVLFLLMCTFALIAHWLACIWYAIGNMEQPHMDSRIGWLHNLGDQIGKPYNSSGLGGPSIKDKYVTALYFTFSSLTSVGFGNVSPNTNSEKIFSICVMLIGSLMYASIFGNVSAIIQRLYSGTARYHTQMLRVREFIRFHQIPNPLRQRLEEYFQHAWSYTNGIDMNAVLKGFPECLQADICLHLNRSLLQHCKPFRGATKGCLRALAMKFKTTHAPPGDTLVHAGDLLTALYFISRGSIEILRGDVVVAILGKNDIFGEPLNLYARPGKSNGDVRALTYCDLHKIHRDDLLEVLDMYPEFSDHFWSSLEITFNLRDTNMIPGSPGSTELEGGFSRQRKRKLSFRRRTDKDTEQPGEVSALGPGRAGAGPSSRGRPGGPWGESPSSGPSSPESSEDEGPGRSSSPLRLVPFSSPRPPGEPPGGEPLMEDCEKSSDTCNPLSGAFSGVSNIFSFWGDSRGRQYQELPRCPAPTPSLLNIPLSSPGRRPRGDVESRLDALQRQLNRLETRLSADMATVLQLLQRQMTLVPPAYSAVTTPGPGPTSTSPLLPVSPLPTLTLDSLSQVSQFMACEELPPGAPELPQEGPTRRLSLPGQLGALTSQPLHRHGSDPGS
Sequence of P2Y purinoceptor 1 (P47900 whole entry): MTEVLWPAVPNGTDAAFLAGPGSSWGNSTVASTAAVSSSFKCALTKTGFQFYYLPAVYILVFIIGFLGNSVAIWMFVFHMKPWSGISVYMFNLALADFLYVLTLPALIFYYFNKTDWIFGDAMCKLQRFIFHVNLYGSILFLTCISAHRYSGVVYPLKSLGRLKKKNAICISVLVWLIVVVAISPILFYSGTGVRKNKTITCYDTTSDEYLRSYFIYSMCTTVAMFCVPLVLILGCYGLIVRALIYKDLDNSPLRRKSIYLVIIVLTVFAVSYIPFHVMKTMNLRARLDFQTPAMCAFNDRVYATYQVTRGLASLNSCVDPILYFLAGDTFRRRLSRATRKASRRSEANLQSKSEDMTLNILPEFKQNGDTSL
Sequence of D(2) dopamine receptor (Homo sapiens) (P14416 whole entry): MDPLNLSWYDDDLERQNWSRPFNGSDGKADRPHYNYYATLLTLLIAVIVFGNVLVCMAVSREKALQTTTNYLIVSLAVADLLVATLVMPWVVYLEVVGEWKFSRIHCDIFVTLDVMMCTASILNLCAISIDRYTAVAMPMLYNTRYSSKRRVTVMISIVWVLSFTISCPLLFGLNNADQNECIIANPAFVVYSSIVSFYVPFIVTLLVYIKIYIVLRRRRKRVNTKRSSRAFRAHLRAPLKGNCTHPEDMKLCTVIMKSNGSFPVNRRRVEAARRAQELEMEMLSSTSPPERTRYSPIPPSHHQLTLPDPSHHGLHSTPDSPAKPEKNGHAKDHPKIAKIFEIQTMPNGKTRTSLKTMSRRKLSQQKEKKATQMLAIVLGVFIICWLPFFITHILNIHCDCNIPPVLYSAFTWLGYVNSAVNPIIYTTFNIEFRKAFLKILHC
Sequence of Sodium-dependent noradrenaline transporter (Homo sapiens) (P23975 whole entry): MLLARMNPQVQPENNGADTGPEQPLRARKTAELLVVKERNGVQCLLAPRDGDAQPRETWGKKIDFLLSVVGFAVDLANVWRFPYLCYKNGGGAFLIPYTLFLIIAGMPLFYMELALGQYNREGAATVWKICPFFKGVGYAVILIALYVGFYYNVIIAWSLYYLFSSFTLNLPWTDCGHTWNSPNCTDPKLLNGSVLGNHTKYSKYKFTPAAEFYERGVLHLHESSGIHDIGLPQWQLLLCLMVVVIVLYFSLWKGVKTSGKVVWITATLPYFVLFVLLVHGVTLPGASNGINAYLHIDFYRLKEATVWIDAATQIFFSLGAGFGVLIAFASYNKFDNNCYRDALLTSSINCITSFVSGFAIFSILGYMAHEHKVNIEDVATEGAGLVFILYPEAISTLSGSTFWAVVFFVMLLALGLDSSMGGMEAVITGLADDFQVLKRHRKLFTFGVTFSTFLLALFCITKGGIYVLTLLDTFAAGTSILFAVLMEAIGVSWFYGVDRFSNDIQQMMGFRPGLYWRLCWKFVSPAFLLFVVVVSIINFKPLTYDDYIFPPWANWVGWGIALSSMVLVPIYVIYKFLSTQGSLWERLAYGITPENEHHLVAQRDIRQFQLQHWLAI
Sequence of 5-hydroxytryptamine receptor 2A (Homo sapiens) (P28223 whole entry): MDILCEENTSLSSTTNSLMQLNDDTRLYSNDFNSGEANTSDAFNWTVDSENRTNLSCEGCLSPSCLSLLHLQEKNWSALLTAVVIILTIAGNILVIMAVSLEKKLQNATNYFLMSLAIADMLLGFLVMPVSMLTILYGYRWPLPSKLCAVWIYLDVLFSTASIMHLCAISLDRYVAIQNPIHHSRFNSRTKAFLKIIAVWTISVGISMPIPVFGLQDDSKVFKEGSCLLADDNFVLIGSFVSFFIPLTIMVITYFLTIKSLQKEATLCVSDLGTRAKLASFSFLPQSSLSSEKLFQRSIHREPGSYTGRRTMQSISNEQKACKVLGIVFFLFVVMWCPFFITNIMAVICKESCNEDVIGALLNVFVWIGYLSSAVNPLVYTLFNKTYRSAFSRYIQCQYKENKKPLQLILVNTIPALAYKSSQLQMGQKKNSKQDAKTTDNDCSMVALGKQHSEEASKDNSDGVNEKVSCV

Take `O=C(Nc1ccc(OC(F)(F)F)cc1)Nc1cccnc1Oc1ccccc1C1CCN(Cc2ccccc2)CC1`: the Ki (as a rule, the equilibrium dissociation constant of an inhibitor or competing ligand from its target) at P2Y purinoceptor 1 was found to be 98 nM. In the data set on Platelet, the IC50 (in general, the concentration that gives 50% inhibition) worked out at 12700 nM.
Molecule `CCCN1CCc2c(cccc2Oc2ncccc2NC(=O)Nc2ccc(OC(F)(F)F)cc2)C1` registered a Ki on P2Y purinoceptor 1 of 620 nM.
On the same count and under the same terms, to `CC(C)CN1CCc2c(cccc2Oc2ncccc2NC(=O)Nc2ccc(OC(F)(F)F)cc2)C1` belongs 60 nM; to `CCN1CCc2c(cccc2Oc2ncccc2NC(=O)Nc2ccc(OC(F)(F)F)cc2)C1`, 1700 nM; to `O=C(Nc1ccc(OC(F)(F)F)cc1)Nc1cccnc1Oc1cccc2c1CCN(Cc1ccc(O)cc1)C2`, 3400 nM.
Still for that read-out and setting: the figure for `CC(C)(C)CCN1CCc2c(cccc2Oc2ncccc2NC(=O)Nc2ccc(OC(F)(F)F)cc2)C1` is 190 nM.
On the same count and under the same terms, the figure for `O=C(Nc1ccc(OC(F)(F)F)cc1)Nc1cccnc1Oc1cccc2c1CCN(Cc1cccnc1)C2` is 1200 nM.
The molecule `O=C(Nc1ccc(OC(F)(F)F)cc1)Nc1cccnc1Oc1cccc2c1CCN(Cc1cccc(O)c1)C2` showed a Ki on P2Y purinoceptor 1 of 2200 nM.
Take `CC(C)(C)CN1CCC(c2ccccc2Oc2ncccc2NC(=O)Nc2ccc(OC(F)(F)F)cc2)CC1`: the Vd in data set [1] was found to be 14 L/kg. Also, the inhibition in data set [2], in data set [4] and in [10] was greater than 50% throughout. In data set [3], this molecule returned a clearance of 18 mL/min/kg. The concentration in solution in [5] (solubility) was 105 µg/mL (≈ 194 µM). In data set [6], the remaining at 10 min was determined as 96%. For the same molecule, the Papp in [7] was 28.6 ×10⁻⁶ cm/s. At P2Y purinoceptor 1, this molecule came in with a Ki of 16 nM. Moreover, the half-life – broadly, the time needed for the level to fall by half in the phase considered – in [8] is 11 h. For the same molecule, the fraction unbound in data set [9] was 0.001. For the same molecule, the IC50 with Platelet was 2400 nM; in data set [12] it was 4600 nM. Besides, the bioavailability (usually the share of a dose that reaches the circulation, judged against a reference dose that is usually intravenous) in data set [11] was 89%.
Consider `CN1Cc2cccc(Oc3ncccc3NC(=O)Nc3ccc(OC(F)(F)F)cc3)c2C1C(C)(C)C` (stereo not given), for which the remaining at 10 min in [6] was 6%. The Papp in [7] came to 78.4 ×10⁻⁶ cm/s. Further, at P2Y purinoceptor 1, the Ki worked out at 57 nM. Besides, the fraction unbound in data set [9] was 0.003. In addition, the solubility – broadly, the dissolved amount per volume that the medium holds – in data set [13] turned out to be 270 µg/mL (≈ 539 µM). Moreover, the Papp A→B in data set [14] is less than 1.5 ×10⁻⁶ cm/s. The IC50 came out at 1200 nM in the data set on Platelet and 7200 nM in data set [12].
At P2Y purinoceptor 1, `CC(C)N1CCc2c(cccc2Oc2ncccc2NC(=O)Nc2ccc(OC(F)(F)F)cc2)C1` yielded a Ki of 560 nM.
Take `CC(C)(C)CN1Cc2cccc(Oc3ncccc3NC(=O)Nc3ccc(OC(F)(F)F)cc3)c2C1`: at P2Y purinoceptor 1, the Ki was found to be 29 nM. Besides, the IC50 with Platelet is greater than 10000 nM.
For the molecule `O=C(Nc1ccc(OC(F)(F)F)cc1)Nc1cccnc1Oc1cccc2c1CCN(Cc1ccncc1)C2`, at P2Y purinoceptor 1, the Ki worked out at 1040 nM.
On the same count and under the same terms, the figure for `O=C(Nc1ccc(OC(F)(F)F)cc1)Nc1cccnc1Oc1cccc2c1CCNC2` is 3000 nM; for `O=C(Nc1ccc(OC(F)(F)F)cc1)Nc1cccnc1Oc1cccc2c1CCN(Cc1ccccn1)C2` it is 1100 nM.
For the molecule `CC(C)CN1CCC(c2ccccc2Oc2ncccc2NC(=O)Nc2ccc(OC(F)(F)F)cc2)CC1`, the Ki at P2Y purinoceptor 1 came out at 150 nM. The IC50 is 7600 nM in the data set on Platelet and 6000 nM in data set [12].
`CN1Cc2cccc(Oc3ncccc3NC(=O)Nc3ccc(OC(F)(F)F)cc3)c2C1` yielded a Ki at P2Y purinoceptor 1 of 3700 nM.
The same measure, in the same setting: to `O=C(Nc1ccc(OC(F)(F)F)cc1)Nc1cccnc1Oc1cccc2c1CCN(Cc1ccccc1)C2` belongs 55 nM.
Take `CC(C)(C)CN1CCc2c(cccc2Oc2ncccc2NC(=O)Nc2ccc(OC(F)(F)F)cc2)C1`: the solubility in data set [15] stood at 3 µg/mL (≈ 5.83 µM). In addition, the remaining at 10 min in data set [6] was 27%. Further, the affinity on P2Y purinoceptor 1, expressed as Ki, was 11 nM. The molecule also displayed an IC50 in the data set with Platelet of 3100 nM.
At P2Y purinoceptor 1, `CC(C)CN1Cc2cccc(Oc3ncccc3NC(=O)Nc3ccc(OC(F)(F)F)cc3)c2C1` came in with a Ki of 68 nM. Further, the IC50 in the data set with Platelet was greater than 10000 nM.
On to `O=C(Nc1ccc(OC(F)(F)F)cc1)Nc1cccnc1Oc1cccc2c1CCN(Cc1ccccc1O)C2`, for which the Ki at P2Y purinoceptor 1 turned out to be 260 nM.
Consider `O=C(Nc1ccc(OC(F)(F)F)cc1)Nc1cccnc1Oc1cccc2c1CCN(CCc1ccccc1)C2`, for which the affinity at P2Y purinoceptor 1 corresponds to a Ki of 290 nM.
